Key:
[1] = system: non-transfected HEK cells; experiment: Whole cell patch clamp, non-transfected HEK cells (Test Example 1); type: cell-based, human; settings: for Effect on Cl currents in non-transfected cells (in words): 1 μM; for Cl channel activity: 1 μM in 1% DMSO, non-transfected HEK cells
Source text: (§1) Whole cell patch clamp method was used to assess the effect of compound 1 (13,14-dihydro-15-keto-16,16-difluoro-PGE1) and compound 2 (13,14-dihydro-15-keto-16,16-difluoro-18 (S)-methyl-PGE1) on recombinant hClC-2 chloride channel. In this example, effects of the respective compounds on Human Epithelial Kidney (HEK) cells transfected with human ClC-2 (hClC-2) were examined, and the results were compared with those on non-transfected HEK cells.
(§2) ClC-2 transfected human epithelial kidney (HEK) cells were prepared and used. HEK-293 cells obtained from American Type Culture Collection (ATCC; Manassas, Va.) were transfected with His- and T7-tagged human ClC-2 cDNA in the mammalian expression vector pcDNA3.1 (GIBCO/Invitrogen) using Lipofectamine (GIBCO/Invitrogen) for 5 h at 37° C. in serum-free medium. Cells were then resuspended in the serum-containing medium and cultured in the presence of 300 μg/ml G-418 (GIBCO/Invitrogen). The surviving cells were then expanded, tested to confirm expression of Cl- current and ClC-2 mRNA, and the cells expressing ClC-2 mRNA were frozen to store. Upon studies, the stored cells were thawed and maintained at 37° C. in 5%/95% CO2/O2 in MEM (GIBCO/Invitrogen) supplemented with 5% inactivated horse serum, 0.1 mM nonessential amino acids, 2 mM L-glutamine, 1 mM sodium pyruvate, 100 units/ml penicillin, and 100 μg/ml streptomycin sulfate.
(§3) In the whole cell patch clamp measurements, currents were elicited by voltage clamp pulses (1500 ms duration) between +40 mV and −140 mV, in 20 mV increments, from the beginning holding potential of −30 mV. Currents were measured 50-100 ms after start of the pulse. The external solution was normal Tyrode solution containing 135 mM NaCl, 1.8 mM CaCl2, 1 mM MgCl2, 5.4 mM KCl, 10 mM glucose, and 10 mM HEPES (pH 7.35). The pipette solution was 130 mM CsCl, 1 mM MgCl2, 5 mM EGTA, and 10 mM HEPES (pH 7.35); also present in the pipette was 1 mM ATP—Mg^2+ (pH 7.4).
(§4) Pipettes were prepared from borosilicate glass and pulled by a two stage Narashige puller to give 1-1.5 MΩ resistance. Data were acquired with Axopatch CV-4 headstage with Digidata 1200 digitizer and Axopatch 1D amplifier. Data were analyzed using pClamp 6.04 (Axon Instruments, Foster City, Calif.), Lotus 123 (IBM) and Origin (Microcal) software.
(§5) Compound 1 and compound 2 were used at a final concentration of 1 μM in 1% DMSO.

[2] = target: T1, recombinant human ClC-2 Chloride Channels (Homo sapiens, UniProt P51788); experiment: Whole cell patch clamp, ClC-2 transfected HEK cells, current increase (Test Example 4); type: cell-based; settings: 100 nM, change from control
T1 construct: His; T7; expressed in transfected cells; host or cells: HEK-293 (ATCC), pcDNA3.1, G-418 selected
T1 sequence (P51788 1-898): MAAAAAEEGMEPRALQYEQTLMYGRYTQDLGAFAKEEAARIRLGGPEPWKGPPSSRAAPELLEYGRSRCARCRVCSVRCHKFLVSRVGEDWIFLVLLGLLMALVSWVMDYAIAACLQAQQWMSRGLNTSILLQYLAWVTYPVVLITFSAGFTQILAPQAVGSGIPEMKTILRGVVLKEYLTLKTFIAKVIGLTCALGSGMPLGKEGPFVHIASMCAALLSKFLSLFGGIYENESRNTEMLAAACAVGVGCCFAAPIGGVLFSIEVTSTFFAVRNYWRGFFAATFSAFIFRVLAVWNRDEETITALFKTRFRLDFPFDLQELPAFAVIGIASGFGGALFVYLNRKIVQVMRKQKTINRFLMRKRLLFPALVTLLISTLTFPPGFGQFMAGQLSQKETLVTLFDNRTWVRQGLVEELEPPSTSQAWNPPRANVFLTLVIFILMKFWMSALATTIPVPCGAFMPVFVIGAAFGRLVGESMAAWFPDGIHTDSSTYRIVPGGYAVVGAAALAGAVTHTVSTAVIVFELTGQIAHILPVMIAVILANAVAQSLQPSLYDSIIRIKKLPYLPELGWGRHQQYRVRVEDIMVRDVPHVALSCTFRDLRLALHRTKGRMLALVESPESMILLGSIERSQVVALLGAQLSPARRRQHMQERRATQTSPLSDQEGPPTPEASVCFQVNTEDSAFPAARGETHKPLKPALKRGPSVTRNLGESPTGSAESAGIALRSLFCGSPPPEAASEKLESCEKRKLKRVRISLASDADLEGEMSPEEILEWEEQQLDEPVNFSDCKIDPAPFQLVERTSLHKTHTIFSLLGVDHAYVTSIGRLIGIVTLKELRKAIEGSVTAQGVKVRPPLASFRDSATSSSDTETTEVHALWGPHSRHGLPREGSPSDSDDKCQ
Protocol: According to the same manner as described in Example 1, whole cell patch clamp measurements were carried out.
Test compounds were used at a final concentration of 100 nM.

AS-HBE cells = experiment: Short-circuit current in AS-HBE cells (Test Example 3); type: cell-based, human; settings: 250 nM
Protocol: AS-HBE is a human bronchial epithelial (HBE) cell line expressing the first 131 nucleotides of CFTR in the antisense direction (antisense CFTR 16HBE14o- cells, HBE-AS; also called AS-HBE). As a result, AS-HBE cells lack CFTR transcripts and lack functional CFTR. However, AS-HBE cells do express functional ClC-2 in a manner identical to the parental cell line, 16HBE14o- cells, from which they were derived. AS-HBE cells were maintained at 37° C. in 5%/95% CO2/O2 in Minimal Essential Medium (MEM; GIBCO/Invitrogen, Carlsbad, Calif.) supplemented with Earl's salt, L-glutamine (GIBCO/Invitrogen), 10% heat-inactivated fetal bovine serum, 100 units/ml penicillin, 100 μg/ml streptomycin sulfate and 400 μg/ml G-418 (GIBCO/Invitrogen). The cells were grown in air-liquid interface on Biocoat inserts (Fisher Scientific, Chicago, Ill.), coated with human plasma fibronectine (GIBCO/Invitrogen) and vitrogen (Cohesion Technologies, Palo Alto, Calif.).
According to the same manner as described in Example 2, Short-circuit current measurements in the AS-HBE cells were carried out. Changes in short-circuit current (ΔIsc) were normalized to the filter area (0.3 cm^2) and reported as ΔIsc/cm^2.
Test compounds were used at a final concentration of 250 nM.

[3] = target: T2, recombinant hClC-2 chloride channel (Homo sapiens, UniProt P51788); experiment: Whole cell patch clamp, HEK cells transfected with hClC-2 (Test Example 1); type: cell-based; settings: for Effect on Cl currents in HEK cells transfected with hClC-2 (in words): 1 μM; for Cl channel activity: 1 μM in 1% DMSO, HEK cells transfected with hClC-2
T2 construct: His; T7; expressed in transfected cells; host or cells: HEK-293 (ATCC), pcDNA3.1, G-418 selected
T2 sequence (P51788 1-898): T1 sequence (P51788 1-898)
Source text: as §1, §2, §3, §4, §5

Activation of ClC-2 channels ΔpA/pF [2] [pA/pF] | Effect on Cl currents in HEK cells transfected with hClC-2 (in words) [3] | Cl channel activity [3] [nS/pF] | SMILES | Effect on Cl currents in non-transfected cells (in words) [1] | Cl channel activity [1] [nS/pF] | Changes in short-circuit currents (Δlsc) (AS-HBE cells) [μA/cm^2]
39.8 | activated | 1.820 ± 0.114 | CCCCC(F)(F)[C@@]1(O)CC[C@H]2[C@@H](CC(=O)[C@@H]2CCCCCCC(=O)O)O1 [Compound 1, (−)-7-[(2R,4aR,5R,7aR)-2-(1,1-difluoropentyl)-2-hydroxy-6-oxoperhydrocyclopenta[b]pyran-5-yl]heptanoic acid] | did not increase | 0.035 ± 0.014 | 4.3
22.6 | activated | 0.558 ± 0.100 | CC[C@H](C)CC(F)(F)C(=O)CC[C@H]1[C@H](O)CC(=O)[C@@H]1CCCCCCC(=O)O [Compound 2, 13,14-dihydro-15-keto-16,16-difluoro-18(S)-Methyl-PGE1] | did not increase | 0.036 ± 0.010 | 9.0

From patent US7253295B2, “Chloride channel opener” (Sucampo AG, priority 2001, dated 2007)
